Measurements published in patent US6812229B1, “Carbamate derivative and agricultural/horticultural fungicide” (Kumiai Chemical Industry Co., Ltd., priority 1999, dated 2004).

These compounds were tested on Septoria nodorum (assay: Test for preventive effect on Septoria leaf blotch of wheat). Details: wheat seedlings (Norin-61-go), two-leaf stage, 50 ppm active ingredient, 10 ml per pot, evaluated 10 days after inoculation with Septoria nodorum.
Type: in vivo
Source text: [table] 10 Wheat seeds (variety: Norin-61-go) were sown in each plastic pot having a diameter of 6 cm, and grown in a greenhouse. […] Then, the seedlings were inoculated with Septoria nodorum […] controlled in a greenhouse. 10 Days after the inoculation, the total diseased area of the first leaves in each pot was observed and evaluated on the basis of the standards shown in Table 21.

SMILES	Evaluation (total diseased area of the first leaves)
COC(=O)NCc1cc(C(C)=NOCc2cccc(C)n2)ccc1Cl (single isomer, unassigned) [A-286]	A (No diseased area)
COC(=O)NCc1cc(C(C#N)=NOCc2ccccc2)ccc1Cl [A-7]	A (No diseased area)
COC(=O)NCc1cc(C(C#N)=NOCc2ccccc2Cl)ccc1Cl [A-8]	B (Diseased area of less than 5%)
COC(=O)NCc1cc(C(C#N)=NOCc2ccccc2)ccc1C [A-20]	B (Diseased area of less than 5%)
COC(=O)NCc1cc(C(C#N)=NOCc2ccccc2Cl)ccc1C [A-21]	A (No diseased area)
CCCCON=C(C)c1ccc(Cl)c(CNC(=O)OC)c1 [A-52]	A (No diseased area)
CCC(C)ON=C(C)c1ccc(Cl)c(CNC(=O)OC)c1 (stereo not drawn) [A-53]	A (No diseased area)
COC(=O)NCc1cc(C(C)=NOCC(C)C)ccc1Cl [A-54]	A (No diseased area)
COC(=O)NCc1cc(C(C)=NOCC2CC2)ccc1Cl [A-56]	B (Diseased area of less than 5%)
COC(=O)NCc1cc(C(C)=NOCC(F)(F)F)ccc1Cl [A-70]	A (No diseased area)
COC(=O)NCc1cc(C(C)=NOc2ccccc2)ccc1Cl [A-73]	A (No diseased area)
COC(=O)NCc1cc(C(C)=NOCc2ccccc2OC)ccc1Cl [A-93]	A (No diseased area)
COC(=O)NCc1cc(C(C)=NOCc2cccc(OC)c2)ccc1Cl [A-94]	A (No diseased area)
COC(=O)NCc1cc(C(C)=NOCc2ccc(OC)cc2)ccc1Cl [A-95]	A (No diseased area)
COC(=O)NCc1cc(C(C)=NOCc2cccc(C#N)c2)ccc1Cl [A-102]	A (No diseased area)
COC(=O)NCc1cc(C(C)=NOCc2ccc(C#N)cc2)ccc1Cl [A-103]	B (Diseased area of less than 5%)
CCON=C(CC)c1ccc(Cl)c(CNC(=O)OC)c1 [A-111]	A (No diseased area)
COC(=O)NCc1cc(C(C)=NOCc2cccc(OC)c2)cc(C)c1Cl [A-157]	A (No diseased area)
COC(=O)NCc1cc(C(C)=NOCc2ccc(OC)cc2)cc(C)c1Cl [A-158]	A (No diseased area)
COC(=O)NCc1cc(C(C)=NOCc2cccc(C(F)(F)F)c2)cc(C)c1Cl [A-159]	A (No diseased area)
COC(=O)NCc1cc(C(C)=NOCc2ccc(C(F)(F)F)cc2)cc(C)c1Cl [A-160]	B (Diseased area of less than 5%)
COC(=O)NCc1cc(C(C)=NOCC=C(Cl)Cl)ccc1Cl [A-185]	A (No diseased area)
CC=CCON=C(C)c1ccc(Cl)c(CNC(=O)OC)c1 [A-189]	A (No diseased area)
C=CCCON=C(C)c1ccc(Cl)c(CNC(=O)OC)c1 [A-198]	A (No diseased area)

SMILES	Evaluation (total diseased area of the first leaves)
COC(=O)NCc1cc(C(C)=NOCC=Cc2ccccc2)ccc1Cl [A-201]	A (No diseased area)
COC(=O)NCc1cc(C(C)=NOCc2ccccc2)ccc1Cl [A-206]	B (Diseased area of less than 5%)
COC(=O)NCc1cc(C(C)=NOCc2ccccc2Cl)ccc1Cl [A-207]	A (No diseased area)
COC(=O)NCc1cc(C(C)=NOCc2cccc(Cl)c2)ccc1Cl [A-208]	B (Diseased area of less than 5%)
COC(=O)NCc1cc(C(C)=NOC(C)c2ccccc2)ccc1Cl (stereo not drawn) [A-216]	A (No diseased area)
COC(=O)NCc1cc(C(C)=NOCc2ccccc2OC(F)(F)F)ccc1Cl [A-217]	A (No diseased area)
COC(=O)NCc1cc(C(C)=NOCc2cccc(OC(F)(F)F)c2)ccc1Cl [A-218]	A (No diseased area)
COC(=O)NCc1cc(C(C)=NOCc2ccccc2C#N)ccc1Cl [A-220]	A (No diseased area)
COC(=O)NCc1cc(C(C)=NOCC2OCCO2)ccc1Cl [A-241]	B (Diseased area of less than 5%)
COC(=O)NCc1cc(C(C)=NOCc2ccc3ccccc3c2)ccc1Cl [A-248]	B (Diseased area of less than 5%)
CCCCCCCON=C(C)c1ccc(Cl)c(CNC(=O)OC)c1 [A-251]	A (No diseased area)
COC(=O)NCc1cc(C(C)=NOCc2cccc(Cl)c2Cl)ccc1Cl [A-252]	A (No diseased area)
COC(=O)NCc1cc(C(C)=NOCc2cc(Cl)ccc2Cl)ccc1Cl [A-254]	A (No diseased area)
COC(=O)NCc1cc(C(C)=NOCc2ccc(Cl)c(Cl)c2)ccc1Cl [A-256]	A (No diseased area)
COC(=O)NCc1cc(C(C)=NOCc2cc(Cl)cc(Cl)c2)ccc1Cl [A-257]	A (No diseased area)
COC(=O)NCc1cc(C(C)=NOCc2cc(C)ccc2C)ccc1Cl [A-258]	B (Diseased area of less than 5%)
COC(=O)NCc1cc(C(C)=NOCc2cccc([N+](=O)[O-])c2)ccc1Cl [A-266]	B (Diseased area of less than 5%)
COC(=O)NCc1cc(C(C#N)=NOCCc2ccccc2)ccc1Cl [A-277]	B (Diseased area of less than 5%)
COC(=O)NCc1cc(C(C)=NOCc2cccc(C(=O)OC)c2)ccc1Cl [A-278]	B (Diseased area of less than 5%)
COC(=O)NCc1cc(C(C)=NOCc2cc(C)cc(C)c2)ccc1Cl [A-279]	B (Diseased area of less than 5%)
COC(=O)NCc1cc(C(C)=NOCc2cccc(Cl)n2)ccc1Cl [A-285]	A (No diseased area)
CCC(=NOCC(C)=NOC)c1ccc(Cl)c(CNC(=O)OC)c1 [A-293]	A (No diseased area)
COC(=O)NCc1cc(C(C)=NOCc2ccccc2Cl)ccc1C [A-294]	B (Diseased area of less than 5%)
COC(=O)NCc1cc(C(C)=NOCc2ccccc2C)ccc1C [A-295]	B (Diseased area of less than 5%)

SMILES	Evaluation (total diseased area of the first leaves)
CCC(=NOCc1ccccc1Cl)c1ccc(Cl)c(CNC(=O)OC)c1 [A-296]	A (No diseased area)
CCC(=NOCc1ccccc1C(F)(F)F)c1ccc(Cl)c(CNC(=O)OC)c1 [A-297]	B (Diseased area of less than 5%)
CCC(=NOCc1ccccc1)c1ccc(Cl)c(CNC(=O)OC)c1 [A-303]	A (No diseased area)
CCC(=NOCc1cccc(OC)c1)c1ccc(Cl)c(CNC(=O)OC)c1 [A-304]	A (No diseased area)
CCC(=NOCc1ccccn1)c1ccc(Cl)c(CNC(=O)OC)c1 [A-305]	A (No diseased area)
COC(=O)NCc1cc(C(C)=NOCc2ncccc2C)ccc1Cl [A-306]	A (No diseased area)
COC(=O)NCc1cc(C(C)=NOC(C)c2ccccc2Cl)ccc1Cl (stereo not drawn) [A-309]	B (Diseased area of less than 5%)
COC(=O)NCc1cc(C(C)=NOC(C)c2cccc(Cl)c2)ccc1Cl (stereo not drawn) [A-310]	A (No diseased area)
COC(=O)NCc1cc(C(C)=NOC(C)c2ccc(Cl)cc2)ccc1Cl (stereo not drawn) [A-311]	A (No diseased area)
COC(=O)NCc1cc(C(C)=NOC(C)c2cccc(OC)c2)ccc1Cl (stereo not drawn) [A-312]	A (No diseased area)
COC(=O)NCc1cc(C(C)=NOC(C)c2cccc(C(F)(F)F)c2)ccc1Cl (stereo not drawn) [A-313]	A (No diseased area)
COC(=O)NCc1cc(C(C)=NOCc2ccccc2C(F)(F)F)ccc1C [A-314]	A (No diseased area)
COC(=O)NCc1cc(C(C)=NOCc2cccc(OC)c2)ccc1C [A-315]	A (No diseased area)
COC(=O)N(Cc1cccc(OC)c1)Cc1cc(C(C)=NOCc2cccc(OC)c2)ccc1C [A-322]	A (No diseased area)
COC(=O)NCc1cc(C(C)=NOCc2ccccc2)ccc1F [A-323]	A (No diseased area)
COC(=O)NCc1cc(C(C)=NOCc2ccccc2F)ccc1F [A-324]	A (No diseased area)
COC(=O)NCc1cc(C(C)=NOCc2ccccc2Cl)ccc1F [A-325]	A (No diseased area)
COC(=O)NCc1cc(C(C)=NOCc2ccccc2Br)ccc1F [A-326]	A (No diseased area)
COC(=O)NCc1cc(C(C)=NOCc2ccccc2C)ccc1F [A-327]	A (No diseased area)
COC(=O)NCc1cc(C(C)=NOCc2ccccc2C(F)(F)F)ccc1F [A-328]	A (No diseased area)
COC(=O)NCc1cc(C(C)=NOCc2cccc(OC)c2)ccc1F [A-329]	A (No diseased area)
COC(=O)NCc1cc(C(C)=NOCc2ccccn2)ccc1F [A-330]	B (Diseased area of less than 5%)
COC(=O)NCc1cc(C(C)=NOCc2ccccn2)ccc1C [A-333]	A (No diseased area)
COC(=O)NCc1cc(C(C)=NOCc2ccc(C)cn2)ccc1Cl [A-334]	A (No diseased area)
